Laboratory results reported in patent US20060034889A1, “Biodegradable diblock copolymers having reverse thermal gelation properties and methods of use thereof” (MacroMed, Inc., priority 2004, published 2006).

Details: 30% by weight aqueous PLG-PEG diblock copolymer solutions or gels, 120 days, 5 °C and 37 °C

drug intact after storage: greater than 85%
SMILES: CC(=O)O[C@H]1C(=O)[C@@]2(C)[C@H]([C@H](OC(=O)c3ccccc3)[C@]3(O)C[C@H](OC(=O)[C@H](O)[C@@H](NC(=O)c4ccccc4)c4ccccc4)C(C)=C1C3(C)C)[C@]1(OC(C)=O)CO[C@@H]1C[C@@H]2O [paclitaxel]
